# Positions of bridges follow the written chain, without caps; N, C: chain ends. Non-standard residues stand in square brackets, D forms with d. Residues, ends and D or L forms follow the SMILES beside them. S5 = C=CCCC[C@](C)(N)C(=O)O
# Legend:
# [1] = system: K. pneumoniae; format: cell-based, Klebsiella pneumoniae
# Method in brief: (§1)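 Broth microdilution adapted from CLSI in Mueller-Hinton broth or cation-adjusted MHB. Overnight 37 °C cultures were regrown 3-4 h, then added to serially diluted peptide at a final 5×10^5 CFU/ml. After 20-24 h at 37 °C, MIC was the lowest peptide concentration with no visible growth.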
# [2] = in vitro; format: cell-based; details: human, Inhibitory Concentration at 50% Cytotoxicity (IC50) Human Liver Cells (HepG2)
# Method in brief: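 HepG2 cells in EMEM with 10% FBS, allowed 4 h to attach, then exposed to serial dilutions of StAMPs (from a 5 mg/mL water stock) or vehicle. After 48 h at 37 °C, viability read by CellTiter-Glo luminescence.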
# [3] = in vitro; format: cell-based; details: human
# Method in brief: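 RPTEC or HepG2 cells plated overnight, given fresh media, then serial StAMP dilutions (from 5 mg/mL water stock) or vehicle at 37 °C. Cytotoxicity read as LDH release into media, absorbance 490 nm; renal toxicity after 90 min, liver toxicity after 48 h incubation.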
# [4] = system: P. aeruginosa; format: cell-based, Pseudomonas aeruginosa
# Method in brief: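 Broth microdilution adapted from CLSI in MHB or cation-adjusted MHB; log-phase P. aeruginosa at 5×10^5 CFU/ml final with serially diluted stapled peptides. Incubated 20-24 h at 37 °C; MIC is the lowest concentration without visible growth.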
# [5] = system: A. baumannii; format: cell-based, Acinetobacter baumannii
# Method in brief: as §1
# [6] = system: E. coli; format: cell-based, Escherichia coli
# Method in brief: as §1
# [7] = system: S. aureus; format: cell-based, Staphylococcus aureus
# Method in brief: as §1
smiles,measurement,setting,value
"CC(C)[C@@H]1NC(=O)[C@@](C)(NC(=O)[C@H](C)NC(=O)[C@H](CCCCN)NC(=O)CNC(=O)[C@H](Cc2ccccc2)NC(=O)[C@H](CCCCN)NC(=O)[C@H](CCCCN)NC(=O)[C@H](CCCCN)NC(=O)[C@H](Cc2c[nH]c3ccccc23)NC(=O)[C@H](Cc2c[nH]cn2)NC(=O)[C@]2(C)CCCC=CCCC[C@](C)(NC(=O)CN)C(=O)NCC(=O)N[C@@H](CCCCN)C(=O)N[C@@H](Cc3ccccc3)C(=O)N2)CCCC=CCCC[C@@](C)(C(=O)N[C@@H](C)C(=O)N[C@@H](CCCCN)C(=O)N[C@@H](CCCCN)C(N)=O)NC(=O)[C@H](CCC(=O)O)NC(=O)CNC1=O [compound 61] (H-G[S5]GKF[S5]HWKKKFGKA[S5]VGE[S5]AKK-NH2; staple 2-6, 16-20)",Minimum Inhibitory Concentration (MIC) K. pneumoniae,[1],64 µg/mL
same,IC50 at 48 hours,[2],> 200 µg/mL
same,IC50 at 90 min,[3],150 µg/mL
same,Minimum Inhibitory Concentration (MIC) P. aeruginosa,[4],8 µg/mL
same,Minimum Inhibitory Concentration (MIC) A. baumannii,[5],4 µg/mL
same,Minimum Inhibitory Concentration (MIC) E. coli,[6],8 µg/mL
same,Minimum Inhibitory Concentration (MIC) S. aureus,[7],>64 µg/mL
"CC(C)[C@@H]1NC(=O)[C@@](C)(NC(=O)[C@H](C)NC(=O)[C@H](CCCCN)NC(=O)[C@H](Cc2c[nH]c3ccccc23)NC(=O)[C@H](Cc2c[nH]c3ccccc23)NC(=O)[C@H](CCCCN)NC(=O)[C@H](CCCCN)NC(=O)[C@H](CCCCN)NC(=O)[C@H](CO)NC(=O)[C@H](Cc2c[nH]cn2)NC(=O)[C@]2(C)CCCC=CCCC[C@](C)(NC(=O)CN)C(=O)NCC(=O)N[C@@H](CCCCN)C(=O)N[C@@H](Cc3ccccc3)C(=O)N2)CCCC=CCCC[C@@](C)(C(=O)N[C@@H](C)C(=O)N[C@@H](CCCCN)C(=O)N[C@@H](CCCCN)C(N)=O)NC(=O)[C@H](CCC(=O)O)NC(=O)CNC1=O [compound 62] (H-G[S5]GKF[S5]HSKKKWWKA[S5]VGE[S5]AKK-NH2; staple 2-6, 16-20)",Minimum Inhibitory Concentration (MIC) K. pneumoniae,[1],8 µg/mL
same,IC50 at 48 hours,[2],35 µg/mL
same,IC50 at 90 min,[3],30 µg/mL
same,Minimum Inhibitory Concentration (MIC) P. aeruginosa,[4],16 µg/mL
same,Minimum Inhibitory Concentration (MIC) A. baumannii,[5],4 µg/mL
same,Minimum Inhibitory Concentration (MIC) E. coli,[6],16 µg/mL
same,Minimum Inhibitory Concentration (MIC) S. aureus,[7],>64 µg/mL
"CC(C)[C@@H]1NC(=O)[C@@](C)(NC(=O)[C@H](Cc2c[nH]c3ccccc23)NC(=O)[C@H](CCCCN)NC(=O)CNC(=O)[C@H](Cc2ccccc2)NC(=O)[C@H](CCCCN)NC(=O)[C@H](CCCCN)NC(=O)[C@H](CCCCN)NC(=O)[C@H](CO)NC(=O)[C@H](Cc2c[nH]cn2)NC(=O)[C@]2(C)CCCC=CCCC[C@](C)(NC(=O)CN)C(=O)NCC(=O)N[C@@H](CCCCN)C(=O)N[C@@H](Cc3ccccc3)C(=O)N2)CCCC=CCCC[C@@](C)(C(=O)N[C@@H](C)C(=O)N[C@@H](CCCCN)C(=O)N[C@@H](CCCCN)C(N)=O)NC(=O)[C@H](CCC(=O)O)NC(=O)CNC1=O [compound 63] (H-G[S5]GKF[S5]HSKKKFGKW[S5]VGE[S5]AKK-NH2; staple 2-6, 16-20)",Minimum Inhibitory Concentration (MIC) K. pneumoniae,[1],8 µg/mL
same,IC50 at 48 hours,[2],60 µg/mL
same,IC50 at 90 min,[3],32 µg/mL
same,Minimum Inhibitory Concentration (MIC) P. aeruginosa,[4],6 µg/mL
same,Minimum Inhibitory Concentration (MIC) A. baumannii,[5],4 µg/mL
same,Minimum Inhibitory Concentration (MIC) E. coli,[6],4 µg/mL
same,Minimum Inhibitory Concentration (MIC) S. aureus,[7],16 µg/mL
"C[C@H](NC(=O)[C@H](CCCCN)NC(=O)CNC(=O)[C@H](Cc1ccccc1)NC(=O)[C@H](CCCCN)NC(=O)[C@H](CCCCN)NC(=O)[C@H](CCCCN)NC(=O)[C@H](CO)NC(=O)[C@H](Cc1c[nH]cn1)NC(=O)[C@]1(C)CCCC=CCCC[C@](C)(NC(=O)CN)C(=O)NCC(=O)N[C@@H](CCCCN)C(=O)N[C@@H](Cc2ccccc2)C(=O)N1)C(=O)N[C@@]1(C)CCCC=CCCC[C@@](C)(C(=O)N[C@@H](C)C(=O)N[C@@H](CCCCN)C(=O)N[C@@H](CCCCN)C(N)=O)NC(=O)[C@H](CCC(=O)O)NC(=O)CNC(=O)[C@H](Cc2c[nH]c3ccccc23)NC1=O [compound 64] (H-G[S5]GKF[S5]HSKKKFGKA[S5]WGE[S5]AKK-NH2; staple 2-6, 16-20)",Minimum Inhibitory Concentration (MIC) K. pneumoniae,[1],32 µg/mL
same,IC50 at 48 hours,[2],> 200 µg/mL
same,IC50 at 90 min,[3],> 200 µg/mL
same,Minimum Inhibitory Concentration (MIC) P. aeruginosa,[4],8 µg/mL
same,Minimum Inhibitory Concentration (MIC) A. baumannii,[5],4 µg/mL
same,Minimum Inhibitory Concentration (MIC) E. coli,[6],4 µg/mL
same,Minimum Inhibitory Concentration (MIC) S. aureus,[7],16 µg/mL
"CC(C)[C@@H]1NC(=O)[C@@](C)(NC(=O)[C@H](C)NC(=O)[C@H](CCCCN)NC(=O)CNC(=O)[C@H](Cc2ccccc2)NC(=O)[C@H](CCCCN)NC(=O)[C@H](CCCCN)NC(=O)[C@H](CCCCN)NC(=O)[C@H](CO)NC(=O)[C@H](Cc2c[nH]cn2)NC(=O)[C@]2(C)CCCC=CCCC[C@](C)(NC(=O)CN)C(=O)NCC(=O)N[C@@H](CCCCN)C(=O)N[C@@H](Cc3ccccc3)C(=O)N2)CCCC=CCCC[C@@](C)(C(=O)N[C@@H](C)C(=O)N[C@@H](CCCCN)C(=O)N[C@@H](CCCCN)C(N)=O)NC(=O)[C@H](Cc2c[nH]c3ccccc23)NC(=O)CNC1=O [compound 66] (H-G[S5]GKF[S5]HSKKKFGKA[S5]VGW[S5]AKK-NH2; staple 2-6, 16-20)",Minimum Inhibitory Concentration (MIC) K. pneumoniae,[1],4 µg/mL
same,IC50 at 48 hours,[2],38 µg/mL
same,IC50 at 90 min,[3],16 µg/mL
same,Minimum Inhibitory Concentration (MIC) P. aeruginosa,[4],6 µg/mL
same,Minimum Inhibitory Concentration (MIC) A. baumannii,[5],4 µg/mL
same,Minimum Inhibitory Concentration (MIC) E. coli,[6],4 µg/mL
same,Minimum Inhibitory Concentration (MIC) S. aureus,[7],32 µg/mL
"CC(C)[C@@H]1NC(=O)[C@@](C)(NC(=O)[C@H](C)NC(=O)[C@H](CCCCN)NC(=O)CNC(=O)[C@H](Cc2ccccc2)NC(=O)[C@H](CCCCN)NC(=O)[C@H](CCCCN)NC(=O)[C@H](CCCCN)NC(=O)[C@H](CO)NC(=O)[C@H](Cc2c[nH]cn2)NC(=O)[C@]2(C)CCCC=CCCC[C@](C)(NC(=O)CN)C(=O)NCC(=O)N[C@@H](CCCCN)C(=O)N[C@@H](Cc3ccccc3)C(=O)N2)CCCC=CCCC[C@@](C)(C(=O)N[C@@H](C)C(=O)N[C@@H](CCCCN)C(=O)N[C@@H](Cc2c[nH]c3ccccc23)C(N)=O)NC(=O)[C@H](CCC(=O)O)NC(=O)CNC1=O [compound 67] (H-G[S5]GKF[S5]HSKKKFGKA[S5]VGE[S5]AKW-NH2; staple 2-6, 16-20)",Minimum Inhibitory Concentration (MIC) K. pneumoniae,[1],8 µg/mL
same,IC50 at 48 hours,[2],52 µg/mL
same,IC50 at 90 min,[3],27 µg/mL
same,Minimum Inhibitory Concentration (MIC) P. aeruginosa,[4],16 µg/mL
same,Minimum Inhibitory Concentration (MIC) A. baumannii,[5],4 µg/mL
same,Minimum Inhibitory Concentration (MIC) E. coli,[6],4 µg/mL
same,Minimum Inhibitory Concentration (MIC) S. aureus,[7],16 µg/mL
"CC(C)[C@@H]1NC(=O)[C@@](C)(NC(=O)[C@H](C)NC(=O)[C@H](CCCCN)NC(=O)CNC(=O)[C@H](Cc2c[nH]c3ccccc23)NC(=O)[C@H](CCCCN)NC(=O)[C@H](CCCCN)NC(=O)[C@H](CCCCN)NC(=O)[C@H](CO)NC(=O)[C@H](Cc2c[nH]cn2)NC(=O)[C@]2(C)CCCC=CCCC[C@](C)(NC(=O)CN)C(=O)NCC(=O)N[C@@H](CCCCN)C(=O)N[C@@H](Cc3ccccc3)C(=O)N2)CCCC=CCCC[C@@](C)(C(=O)N[C@@H](C)C(=O)N[C@@H](CCCCN)C(=O)N[C@@H](CCCCN)C(N)=O)NC(=O)[C@H](CCC(=O)O)NC(=O)CNC1=O [compound 68] (H-G[S5]GKF[S5]HSKKKWGKA[S5]VGE[S5]AKK-NH2; staple 2-6, 16-20)",Minimum Inhibitory Concentration (MIC) K. pneumoniae,[1],16 µg/mL
same,IC50 at 48 hours,[2],129 µg/mL
same,IC50 at 90 min,[3],117 µg/mL
same,Minimum Inhibitory Concentration (MIC) P. aeruginosa,[4],8 µg/mL
same,Minimum Inhibitory Concentration (MIC) A. baumannii,[5],4 µg/mL
same,Minimum Inhibitory Concentration (MIC) E. coli,[6],4 µg/mL
same,Minimum Inhibitory Concentration (MIC) S. aureus,[7],>64 µg/mL
"CC(C)[C@@H]1NC(=O)[C@@](C)(NC(=O)[C@H](C)NC(=O)[C@H](CCCCN)NC(=O)[C@H](Cc2c[nH]c3ccccc23)NC(=O)[C@H](Cc2ccccc2)NC(=O)[C@H](CCCCN)NC(=O)[C@H](CCCCN)NC(=O)[C@H](CCCCN)NC(=O)[C@H](CO)NC(=O)[C@H](Cc2c[nH]cn2)NC(=O)[C@]2(C)CCCC=CCCC[C@](C)(NC(=O)CN)C(=O)NCC(=O)N[C@@H](CCCCN)C(=O)N[C@@H](Cc3ccccc3)C(=O)N2)CCCC=CCCC[C@@](C)(C(=O)N[C@@H](C)C(=O)N[C@@H](CCCCN)C(=O)N[C@@H](CCCCN)C(N)=O)NC(=O)[C@H](CCC(=O)O)NC(=O)CNC1=O [compound 69] (H-G[S5]GKF[S5]HSKKKFWKA[S5]VGE[S5]AKK-NH2; staple 2-6, 16-20)",Minimum Inhibitory Concentration (MIC) K. pneumoniae,[1],8 µg/mL
same,IC50 at 48 hours,[2],23 µg/mL
same,IC50 at 90 min,[3],24 µg/mL
same,Minimum Inhibitory Concentration (MIC) P. aeruginosa,[4],8 µg/mL
same,Minimum Inhibitory Concentration (MIC) A. baumannii,[5],4 µg/mL
same,Minimum Inhibitory Concentration (MIC) E. coli,[6],4 µg/mL
same,Minimum Inhibitory Concentration (MIC) S. aureus,[7],32 µg/mL

# Reference: patent US20240174723A1, “STAPLED ANTIMICROBIAL PEPTIDES (STAMPS) AND USES THEREOF” (Lytica Therapeutics, Inc., priority 2021, published 2024)
